The numbers were not newly measured in US11202772B2, “Duloxetine sprinkles” (priority 2016, dated 2021), which cites them from elsewhere.

For the compound `CNCCC(Oc1cccc2ccccc12)c1cccs1` (single isomer, unassigned; (+)) [Duloxetine, (+)-N-methyl-3-(1-naphthalenyloxy)-3-(2-thienyl)propan-1-amine], for the setting “pH 1.0”, the “drug in the dosage hydrolyzed to 1-naphthol” value is 50%. Further, the “drug degrades to 1-naphthol” value (pH of 2.0, in one hour) is on record as 10%. The “time for 10% degradation” value (pH of 4.0) is given as “up to 63 hours”.
